# Positions count from the first letter of the chain named.
# What was measured:
# Format in all cases: biochemical
# HDA14 (6xHis-HDA14) = biological target: T1, HDA14 (6xHis-HDA14) (Arabidopsis thaliana, UniProt Q941D6); test: colorimetric deacetylase assay, acetylated p53 peptide p53-5,2-ANB, trypsin-coupled, […] nm
# T1 construct: lacks first 45 aa (predicted signal peptide); N-terminal 6xHis tag (pEXP-5-NT/TOPO); E. coli BL21(DE3); apoenzyme reloaded with Zn2+ or Co2+
# T1 sequence (Q941D6 46-423): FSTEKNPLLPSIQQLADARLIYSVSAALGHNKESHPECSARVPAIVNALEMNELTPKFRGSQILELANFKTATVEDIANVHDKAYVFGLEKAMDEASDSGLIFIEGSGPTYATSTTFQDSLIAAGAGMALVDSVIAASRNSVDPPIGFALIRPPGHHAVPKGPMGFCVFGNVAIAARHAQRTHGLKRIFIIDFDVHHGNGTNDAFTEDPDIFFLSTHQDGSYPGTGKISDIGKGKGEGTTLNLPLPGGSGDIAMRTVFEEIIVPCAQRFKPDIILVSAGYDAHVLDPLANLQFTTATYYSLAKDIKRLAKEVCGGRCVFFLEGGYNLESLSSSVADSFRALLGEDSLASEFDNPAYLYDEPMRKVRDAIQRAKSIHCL
# [1] = biological target: T2, RCA-β1 (RCAβ1; 6x-HisRCAβ1) (Arabidopsis thaliana, UniProt F4IVZ7, K438R); test: ATPase activity, KinaseGlo Max luminescent ATP consumption assay; details: read-out: % inhibition at 55 uM ADP
# T2 construct: N-terminal 6xHis tag, pCDFDuet-1, E. coli Rosetta-gami
# T2 sequence (F4IVZ7 59-441 K438R): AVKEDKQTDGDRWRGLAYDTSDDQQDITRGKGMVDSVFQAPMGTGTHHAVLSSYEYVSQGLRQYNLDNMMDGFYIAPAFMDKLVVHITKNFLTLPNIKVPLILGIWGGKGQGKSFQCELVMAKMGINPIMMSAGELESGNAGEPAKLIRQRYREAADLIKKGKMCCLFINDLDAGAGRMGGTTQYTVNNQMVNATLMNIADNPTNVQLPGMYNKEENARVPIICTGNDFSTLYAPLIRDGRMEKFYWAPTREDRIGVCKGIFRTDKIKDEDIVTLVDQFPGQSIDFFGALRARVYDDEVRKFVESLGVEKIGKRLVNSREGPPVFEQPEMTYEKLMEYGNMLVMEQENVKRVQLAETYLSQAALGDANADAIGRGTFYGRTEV
# [2] = biological target: T3, RCA-β1 (RCAβ1; 6x-HisRCAβ1) (Arabidopsis thaliana, UniProt F4IVZ7, K438Q); test: as above; details: read-out: % inhibition at 55 uM ADP
# T3 construct: N-terminal 6xHis tag, pCDFDuet-1, E. coli Rosetta-gami
# T3 sequence (F4IVZ7 59-441 K438Q): T2 sequence (F4IVZ7 59-441 K438R) with R380Q
# [3] = biological target: T4, RCA-β1 (RCAβ1; 6x-HisRCAβ1) (Arabidopsis thaliana, UniProt F4IVZ7); test: as above; details: read-out: % inhibition at 55 uM ADP
# T4 construct: N-terminal 6xHis tag, pCDFDuet-1, E. coli Rosetta-gami
# T4 sequence (F4IVZ7 59-441): T2 sequence (F4IVZ7 59-441 K438R) with R380K
Compound,inhibition at 5 µM (HDA14 (6xHis-HDA14)) [%],inhibition at 55 µM [1] [%],inhibition at 55 µM [2] [%],inhibition at 55 µM [3] [%]
CC(/C=C/C(=O)NO)=C\[C@@H](C)C(=O)c1ccc(N(C)C)cc1 [trichostatin A],80,–,–,–
Nc1ncnc2c1ncn2[C@@H]1O[C@H](COP(=O)(O)OP(=O)(O)O)[C@@H](O)[C@H]1O [ADP],–,~30,~8,~19

# Source: article PMC5658702, “Lysine acetylome profiling uncovers novel histone deacetylase substrate proteins in Arabidopsis” (Molecular Systems Biology, 2017)
